Each structure is given as a SMILES string.

The test addresses T1, ATP-sensitive inward rectifier potassium channel 1 (Homo sapiens, UniProt P48048).
T1 sequence (P48048 whole entry): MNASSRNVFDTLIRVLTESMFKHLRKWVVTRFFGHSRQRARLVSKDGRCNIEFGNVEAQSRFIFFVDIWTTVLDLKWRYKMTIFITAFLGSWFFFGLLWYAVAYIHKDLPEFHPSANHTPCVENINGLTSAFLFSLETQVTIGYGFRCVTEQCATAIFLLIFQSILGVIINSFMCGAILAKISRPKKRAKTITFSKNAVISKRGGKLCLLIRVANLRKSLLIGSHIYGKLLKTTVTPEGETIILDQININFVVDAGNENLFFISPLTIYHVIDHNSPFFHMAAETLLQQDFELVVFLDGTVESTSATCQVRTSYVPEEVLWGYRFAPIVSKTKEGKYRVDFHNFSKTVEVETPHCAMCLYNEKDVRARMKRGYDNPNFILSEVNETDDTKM
The test can be described thus: Thallium Flux Assay: A Thallium Flux Assay was performed on each of the final product compounds of the Examples. This assay has been described previously; see, e.g., PCT Published Application WO 2013/062900.
`C[C@H]1C[C@]2(CC[C@@H](NCc3cnc(-n4cnnn4)s3)CC2)C(=O)N1C1=CC(=O)OC1` yielded an IC50 of 24 nM. In turn, `CC1=C(N2C(=O)[C@]3(CC[C@@H](NCc4cnc(-n5cnnn5)cn4)CC3)C[C@@H]2C)COC1=O` gave a half-maximal inhibitory concentration (IC50) of 420 nM. In turn, `CC1=C(N2C(=O)[C@]3(CC[C@H](N(C)Cc4cnc(-n5cnnn5)cn4)CC3)C[C@H]2C)COC1=O` had an IC50 of 200 nM. The result for `C[C@@H]1C[C@]2(CC[C@@H](NCc3ccc(-n4cnnn4)nn3)CC2)C(=O)N1C1=CC(=O)OC1` reads 110 nM; that for `CC1=C(N2CC[C@]3(CC[C@@H](N(C)Cc4ccc(-n5ncnn5)nc4)CC3)C2=O)COC1=O`, 640 nM. In turn, `CC1C[C@]2(CC[C@@H](NCc3cnc(-n4cnnn4)cn3)CC2)C(=O)N1C1=CC(=O)OC1` (stereo not given in full) came in with an IC50 of 46 nM. Turning to `CC1=C(N2CC[C@]3(CC[C@@H](N(C)Cc4cnc(-n5cnnn5)s4)CC3)C2=O)COC1=O`, half-maximal inhibition (IC50) was put at 30 nM. This IC50 is about 1.5-fold lower than that of the compound before. Turning to `CC1=C(N2C(=O)[C@]3(CC[C@H](N(C)Cc4ccc(-n5cnnn5)nn4)CC3)C[C@H]2C)COC1=O`, the half-inhibitory concentration (IC50) is 200 nM. Compared with the last compound, the IC50 is about 6.7-fold higher.

The compound `C[C@@H]1C[C@]2(CC[C@@H](NCc3cnc(-n4cnnn4)s3)CC2)C(=O)N1C1=CC(=O)OC1` had an IC50 of 190 nM.

On to `C[C@H]1C[C@]2(CC[C@H](NCc3ccc(-n4cnnn4)nn3)CC2)C(=O)N1C1=CC(=O)OC1`, for which the IC50 amounted to 8.4 nM. This IC50 lies about 23-fold lower than the previous one. As for `CC1=C(N2C(=O)[C@]3(CC[C@H](N(C)Cc4ccc(-n5cnnn5)nn4)CC3)C[C@@H]2C)COC1=O`, the midpoint of inhibition, the IC50, lay at 200 nM. In turn, `CC1=C(N2CC[C@]3(CC[C@@H](NCc4cnc(-n5cnnn5)s4)CC3)C2=O)COC1=O` gave an IC50 of 92 nM. Against the preceding compound, the IC50 is about 2.2-fold lower. `C[C@@H]1C[C@]2(CC[C@@H](N(C)Cc3ccc(-n4cnnn4)nn3)CC2)C(=O)N1C1=CC(=O)OC1` showed a half-maximal inhibitory concentration (IC50) of 270 nM.

Consider `CC1=C(N2CCC3(CCC(NCc4ccc5c(c4C)Cn4nnnc4-5)CC3)C2=O)COC1=O` (stereo not given), for which 19 nM corresponded to half-maximal inhibition (IC50). The result for `CC1C[C@]2(CC[C@@H](NCc3ccc(-n4cnnn4)nn3)CC2)C(=O)N1C1=CC(=O)OC1` (stereo not given in full) reads 28 nM; that for `CC1=C(N2CC[C@]3(CC[C@@H](N(Cc4ccc(-n5cnnn5)nn4)Cc4ncco4)CC3)C2=O)COC1=O`, 210 nM. The value for `C[C@H]1C[C@]2(CC[C@@H](NCc3ccc(-n4cnnn4)nn3)CC2)C(=O)N1C1=CC(=O)OC1` was 30 nM; that for `CC1=C(N2CC[C@]3(CC[C@@H](N[C@@H](C)c4ccc(-n5cnnn5)nn4)CC3)C2=O)COC1=O` was 320 nM. The result for `CC1=C(N2C(=O)[C@]3(CC[C@@H](N(C)Cc4cnc(-n5cnnn5)cn4)CC3)C[C@@H]2C)COC1=O` reads 310 nM; that for `CC1=C(N2CC[C@]3(CC[C@@H](NC(C)c4cnc(-n5cnnn5)cn4)CC3)C2=O)COC1=O` (stereo not given in full), 170 nM. `CC1=C(N2C(=O)[C@]3(CC[C@H](NCc4cnc(-n5cnnn5)cn4)CC3)C[C@H]2C)COC1=O` came in with an IC50 of 65 nM. This IC50 lies about 2.6-fold lower than the previous one. The result for `CC1=C(N2C(=O)[C@]3(CC[C@H](NCc4ccc(-n5cnnn5)nn4)CC3)C[C@H]2C)COC1=O` reads 23 nM; that for `CC1=C(N2C(=O)[C@]3(CC[C@H](NCc4ccc(-n5cnnn5)nn4)CC3)C[C@@H]2C)COC1=O`, 40 nM; that for `CC1=C(N2CC[C@]3(CC[C@@H](N(CCO)Cc4ccc(-n5cnnn5)nn4)CC3)C2=O)COC1=O`, 150 nM.

For the compound `CC1=C(N2CC[C@]3(CC[C@@H](NCc4cc(C)c(-n5cnnn5)nn4)CC3)C2=O)COC1=O`, the half-maximal inhibitory concentration (IC50) came to 8.4 nM.

Values taken from ChEMBL document CHEMBL5725551, “Inhibitors of the renal outer medullary potassium channel” (2017).
